Laboratory results published in patent publication US20250186503A1, “METHODS AND COMBINATIONS FOR TREATMENT AND T CELL MODULATION” (Juno Therapeutics, Inc., priority 2018, published 2025).

Key:
[1] = test system: CAR-expressing T cells; experiment: RNA-seq and ATAC-seq of CAR-expressing T cells stimulated in the presence of lenalidomide; assay type: cell-based
Experimental: Directionality and significance of the effects on biological pathways are shown at 24 hours (FIG. 28A) or 7 days (FIG. 28B).
Importantly, the upregulation of IFN-γ and CD25 supported previous findings from chronic stimulation experiments.

[2] = test system: K562-CD19 cells; experiment: Cytolytic activity of serially restimulated anti-CD19 CAR+ T cells against K562-CD19 cells; assay type: cell-based, human; settings: 1 μM, 2nd and 4th restimulation
Experimental: Cells from each condition were plated in triplicate. Representative cell killing observed at the 2nd and 4th restimulation for both donors is shown in FIG. 18A (as normalized to K562—CD19-Nuc-labeled cells at t=0) or in FIG. 18B (% cell killing compared to vehicle only control (set at 100%)).

[3] = test system: OPM-2; experiment: OPM-2 human multiple myeloma orthotopic mouse model, Study 1; assay type: in vivo
Experimental: Mice (NOD.Cg-Prkd^scidIL-2rg^tm1Wjl/SzJ mice (NSG; Jackson Labs)) were injected intravenously (i.v.) with 2×10^6 OPM2 (multiple myeloma) cells transfected with firefly luciferase (OPM2-ffluc). Tumor engraftment was allowed to occur for 13 days prior to staging (14 days before CAR-T cell administration) and verified using bioluminescence imaging.
In groups receiving CAR+ T cells, anti-BCMA CAR (generated by transducing cells derived from samples of human donor subjects essentially as described above) were administered at day 0 (day 14 after tumor cell injection), at a dose of either 5×10^5 (low) or 1×10^6 (high) CAR-expressing T cells. Table E1 summarizes the dosing regimens.
Tumor burden in animals among the various groups was monitored by bioluminescence imaging up to day 39 post-CAR+ T cell dosing. For bioluminescence imaging, mice received intraperitoneal (i.p.) injections of luciferin substrate (CaliperLife Sciences, Hopkinton, MA) resuspended in PBS (15 μg/g body weight). The total flux (photon/s) was determined at each time point.
Table E2 lists median survival (ms) (as assessed at day 56 post-CAR+ T cell administration) and number of mice in group surviving until day 56-post-CAR+ T cell administration, for each animal group assessed in this study.

[4] = test system: anti-BCMA CAR T cells; experiment: Proliferation and expansion of anti-BCMA CAR T cells stimulated with BCMA-conjugated beads; assay type: cell-based, human; settings: 5 μM
Experimental: To further assess proliferation, the cells containing anti-BCMA CAR-expressing T cells were labeled with the proliferation marker dye CELLTRACE VIOLET (CTV; ThermoFisher Scientific, Waltham MA) in accordance with the manufacturer's protocol prior to incubation with the BCMA-conjugated beads. Proliferation was assessed by dye dilution using flow cytometry on cells that were stimulated with beads from the 50 μg/mL BCMA-conjugated bead composition.
Four days and seven days after addition of BCMA-conjugated beads, the incubated cells were stained with CD4 or CD8 and with an anti-EGFR antibody to determine the percentage of cells positive for EGFRt as a surrogate for CAR+ T cells.

[5] = test system: anti-BCMA CAR T cells; experiment: Cytokine production of anti-BCMA CAR T cells at low, medium and high BCMA bead stimulation; assay type: cell-based, human
Experimental: In another study, recombinant human BCMA-conjugated beads were used to stimulate CAR T cells at various concentratons to titrate the magnitude of stimulation, either low (5 μg/mL), medium (50 μg/mL), and high (200 μg/mL) stimulation.

[6] = molecular target: T1, Ikaros (Homo sapiens, UniProt Q13422+Q96SW2); experiment: Intracellular Ikaros expression in CAR-expressing T cells; assay type: cell-based
T1 construct: intracellular levels of Ikaros in CD4+ CAR+ or CD8+ CAR+ cells; endogenous in cells; host or cells: primary human CD4+ and CD8+ T cells transduced with an anti-CD19 CAR (FMC63 scFv)
T1 sequence (Q13422 whole entry): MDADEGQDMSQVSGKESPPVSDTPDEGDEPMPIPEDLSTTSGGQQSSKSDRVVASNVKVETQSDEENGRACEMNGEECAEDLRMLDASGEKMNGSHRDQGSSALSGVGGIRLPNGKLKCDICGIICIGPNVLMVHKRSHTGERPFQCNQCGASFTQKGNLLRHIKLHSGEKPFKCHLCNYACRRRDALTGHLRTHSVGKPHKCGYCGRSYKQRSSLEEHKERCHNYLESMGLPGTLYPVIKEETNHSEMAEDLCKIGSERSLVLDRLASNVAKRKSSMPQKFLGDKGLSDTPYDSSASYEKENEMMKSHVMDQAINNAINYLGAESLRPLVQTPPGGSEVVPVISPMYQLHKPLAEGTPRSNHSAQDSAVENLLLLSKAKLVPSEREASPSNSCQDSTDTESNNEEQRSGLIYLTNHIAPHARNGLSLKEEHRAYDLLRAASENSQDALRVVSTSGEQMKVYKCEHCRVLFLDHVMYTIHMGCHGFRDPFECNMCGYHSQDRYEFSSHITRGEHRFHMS
T1 sequence (Q96SW2 whole entry): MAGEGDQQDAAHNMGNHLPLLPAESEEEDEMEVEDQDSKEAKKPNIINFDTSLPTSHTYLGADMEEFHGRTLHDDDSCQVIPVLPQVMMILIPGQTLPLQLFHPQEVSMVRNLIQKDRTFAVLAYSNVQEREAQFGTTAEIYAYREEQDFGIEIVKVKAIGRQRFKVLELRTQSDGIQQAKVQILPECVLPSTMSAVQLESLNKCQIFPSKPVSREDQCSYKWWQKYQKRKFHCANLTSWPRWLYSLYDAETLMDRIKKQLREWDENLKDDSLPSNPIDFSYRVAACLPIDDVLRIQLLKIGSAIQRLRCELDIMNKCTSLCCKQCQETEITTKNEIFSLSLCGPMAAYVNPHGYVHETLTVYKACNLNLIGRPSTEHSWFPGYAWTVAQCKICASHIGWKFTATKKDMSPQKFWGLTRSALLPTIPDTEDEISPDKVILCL
T1 sequence (Q16531 whole entry partner): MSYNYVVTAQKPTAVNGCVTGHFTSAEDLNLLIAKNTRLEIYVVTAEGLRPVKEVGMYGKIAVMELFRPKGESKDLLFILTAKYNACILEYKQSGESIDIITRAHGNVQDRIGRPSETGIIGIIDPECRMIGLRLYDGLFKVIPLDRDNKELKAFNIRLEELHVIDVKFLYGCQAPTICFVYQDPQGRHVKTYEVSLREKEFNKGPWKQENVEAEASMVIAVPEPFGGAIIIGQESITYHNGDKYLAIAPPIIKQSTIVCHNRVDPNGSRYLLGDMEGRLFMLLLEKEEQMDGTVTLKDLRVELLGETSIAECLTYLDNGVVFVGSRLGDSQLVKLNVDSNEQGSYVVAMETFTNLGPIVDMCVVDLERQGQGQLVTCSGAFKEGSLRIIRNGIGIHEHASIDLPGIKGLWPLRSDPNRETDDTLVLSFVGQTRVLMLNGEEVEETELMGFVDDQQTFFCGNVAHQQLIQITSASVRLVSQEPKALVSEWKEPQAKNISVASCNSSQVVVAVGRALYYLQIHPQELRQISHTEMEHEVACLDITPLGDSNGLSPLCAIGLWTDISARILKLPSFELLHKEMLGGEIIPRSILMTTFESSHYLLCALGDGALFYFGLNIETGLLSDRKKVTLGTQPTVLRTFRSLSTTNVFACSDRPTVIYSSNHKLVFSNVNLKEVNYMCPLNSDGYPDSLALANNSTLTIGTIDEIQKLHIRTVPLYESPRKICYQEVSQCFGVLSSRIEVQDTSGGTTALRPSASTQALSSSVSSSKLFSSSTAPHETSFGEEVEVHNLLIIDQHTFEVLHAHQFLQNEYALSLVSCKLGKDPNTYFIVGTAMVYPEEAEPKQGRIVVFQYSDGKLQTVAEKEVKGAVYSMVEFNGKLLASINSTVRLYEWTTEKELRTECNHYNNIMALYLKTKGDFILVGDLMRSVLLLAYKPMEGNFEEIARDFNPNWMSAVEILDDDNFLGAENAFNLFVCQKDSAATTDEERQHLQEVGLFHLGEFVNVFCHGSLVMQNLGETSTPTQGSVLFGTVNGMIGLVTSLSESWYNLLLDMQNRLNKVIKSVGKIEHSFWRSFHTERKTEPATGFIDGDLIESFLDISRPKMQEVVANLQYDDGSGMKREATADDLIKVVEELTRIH
From the text: FIGS. 31A-31C show flow cytometry analysis of intracellular Ikaros or Aiolos expression on both CD4+ anti-CD19 CAR-expressing T cells and CD8+ anti-CD19 CAR-expressing T cells. […] Median fluorescence intensity (MFI) values for Ikaros and Aiolos were normalized and calculated as a percentage relative to […] vehicle control.

[7] = test system: Nr4a1 (Nur77) reporter; experiment: CAR signaling in Jurkat Nur77 reporter cell line; assay type: cell-based; settings: anti-CD19 CAR or anti-ROR1 CAR; up to 6 hours
From the text: Cells of a reporter cell line were transduced using lentiviral vectors encoding the anti-CD19 CAR described in Example 14 or an anti-ROR1 CAR were introduced into cells of a Jurkat reporter cell line to assess CAR signaling in the presence of CAR stimulation. The anti-ROR1 CAR contained an anti-ROR1 scFv derived from a murine antibody, an immunoglobulin-derived spacer, a transmembrane domain derived from CD28, a costimulatory region derived from 4-1BB, and a CD3-zeta intracellular signaling domain. The Jurkat reporter cell lines contained a red fluorescent protein inserted by knock-ininto the endogenous Nr4a1 (Nur77) gene.

[8] = test system: A549 CD19+ tumor spheroids; experiment: Rescue of chronically stimulated anti-CD19 CAR T cells rechallenged with A549 CD19+ tumor spheroids; assay type: cell-based, human
Experimental: Anti-CD19 CAR-expressing T cell compositions (containing CD4+ and CD8+ T cells combined at a 1:1 ratio) were generated from three different healthy donors substantially as described in Example 14. To subject cells to chronic stimulation conditions, the CAR+ T cells were incubated with plate-bound anti-idiotypic (anti-ID) antibody (see e.g. WO2018/023100), and incubated at 37° C. for a period of 6 days. […] The A549 CD19+tumor spheroids were labeled with a dye to permit monitoring of tumor cell lysis by microscopy during the assay. Freshly thawed anti-CD19 CAR-expressing T cells that had not been subjected to the chronic stimulatory conditions were incubated with the spheroids in parallel as controls. Cells were assessed at various times for cytolytic function, CAR T cell number and cytokine production.

[9] = test system: CD19 directed CAR-expressing T cells; experiment: Antigen-dependent cytokine production by CD19 directed CAR-expressing T cells; assay type: cell-based, human; settings: compared to vehicle control or equimolar concentrations of lenalidomide
From the text: […]. […] Data represents the mean+/−S.D. across 3 experiments.

Nc1cccc2c1CN(C1CCC(=O)NC1=O)C2=O (centres unmarked) [lenalidomide, 3-(4-amino-1-oxo-1,3-dihydro-2H-isoindol-2-yl)piperidine-2,6-dione]
expression of genes involved in T cell activation and signaling (RNA-seq) ([1]; 24 hours or 7 days): increased expression of genes involved in T cell activation and signaling | Th2-associated gene signatures ([1]; 7 days of stimulation): decreasing | pathways associated with Th1 T-cell response and co-stimulation ([1]; 7 days of stimulation): upregulated | CD69 and CCR7 chromatin accessibility and gene transcription ([1]; 7 days with stimulation): decrease | chromatin accessibility at loci associated with IFN-γ and IL-2RA (CD25) ([1]; 7 days with stimulation): significant increase in chromatin accessibility | anti-CD19 CAR+ T cell cytolytic activity [2]: decrease | tumor growth or tumor burden, lenalidomide alone ([3]; 10 mg/kg i.p. daily, no CAR-T cells): not observed to reduce tumor growth or tumor burden | # animals surviving day 56 post-CART ([3]; cell dose 1.00E+06 (hi) or 5.00E+05 (low), lenalidomide 10 mg/kg i.p. daily from day −1 (A) or day 14 (B)): 0/8 | Median Survival (assessed at day 6) ([3]; cell dose 1.00E+06 (hi) or 5.00E+05 (low), lenalidomide 10 mg/kg i.p. daily from day −1 (A) or day 14 (B), listed as lenalidomide (A)): 28 | Median Survival (assessed at day 6) ([3]; cell dose 1.00E+06 (hi) or 5.00E+05 (low), lenalidomide 10 mg/kg i.p. daily from day −1 (A) or day 14 (B), listed as lenalidomide (B)): 25 | survival effects in mice treated with anti-BCMA CAR+ T cells ([3]; high and low CAR doses, lenalidomide at day −1 (A) or delayed d.14 (B)): improved survival effects | day post-CAR-T cell injection from which clear differences were observed ([3]; higher (1×10^6) dose of CAR+ T cells, lenalidomide B): 30 to 40 days | tumor growth and tumor burden in mice administered CAR+ T cells ([3]; lenalidomide 10 mg/kg i.p. daily from day −1 (A), both CAR+ T cell doses): slower tumor growth and reduced tumor burden | tumor growth and tumor burden in mice administered CAR-T cells ([3]; lenalidomide from day 14 post-CAR+ T (B), both doses of CAR-T cells): trend towards slower tumor growth and reduced tumor burden | extent of CAR+ T cell expansion (EGFRt+) [4]: did not substantially impact | total cell count at day 7 ([4]; 50 μg beads): small increase in proliferation | percentage of IFN-γ+ and TNF-α+ intracellular staining ([5]; 0.1 or 1.0 μM, all stimulation levels, CD4+ and CD8+ CAR T cells): increased | percentage of IL-2+ CAR+ T cells ([5]; 5-μg stimulation): increasing | percentage of IL-2+ CAR+ T cells ([5]; 50-μg and 200-μg stimulation): decreasing | CAR T cytokine production ([5]; absence of stimulation): no effect | IFN-γ secreted ([5]; medium stimulation (50 μg/mL BCMA beads), 24 hours): donor-dependent increases

Cc1nc2cccc(N)c2c(=O)n1C1CCC(=O)NC1=O (centres unmarked) [Compound 1, 3-(5-amino-2-methyl-4-oxo-4H-quinazolin-3-yl)-piperidine-2,6-dione]
Ikaros expression in CAR-expressing T cells [6]: decreased in a concentration dependent manner | magnitude of Ikaros loss compared with lenalidomide [6]: greater | Nur77 reporter signal following CAR-specific stimulation [7]: increased | EC50 ([8]; Homo sapiens, chronically stimulated CAR-T cells, A549 CD19+ spheroids, read-out: EC50 for effect on tumor volume reduction): 127 nM | numbers of CAR-T cells ([8]; day 5, 1 μM, fresh and chronically stimulated CAR-T cells): increase expansion and/or survival of CAR-T cells | cytokine production (IFN-γ, IL-2, TNF-α) ([8]; day 5, long-term stimulated CAR-expressing T cells): increased relative to co-cultures containing vehicle control | antigen-specific cytokine production and tumor reduction by chronically stimulated CAR-T cells ([8]; rescue treatment): restore antigen-specific cytokine production and tumor reduction | levels of IFNγ and IL-2 [9]: increased levels
